Measurements from article PMC11945486, “TAS1R2/TAS1R3 Single-Nucleotide Polymorphisms Affect Sweet Taste Receptor Activation by Sweeteners: The SWEET Project” (Nutrients, 2025).
Where two headings read alike, the source gives them in different places. No end group written: not given here.

B1: thaumatin (protein)
chain: ATFEIVNRCSYTVWAAASKGDAALDAGGRQLNSGESWTINVEPGTKGGKIWARTDCYFDDSGSGICKTGDCGGLLRCKRFGRPPTTLAEFSLNQYGKDYIDISNIKGFNVPMDFSPTTRGCRGVRCAADIVGQCPAKLKAPGGGCNDACTVFQTSEYCCTTGKCGPTEYSRFFKRLCPDAFSYVLDKPTTVTCPGSSNYRVTFCPTA
modifications: Eight disulfides
notes: sweet-tasting plant protein, E957

Molecular target: T1, human TAS1R2-WT/TAS1R3-S446N (Homo sapiens, UniProt Q7RTX0+Q8TE23, S446N)
T1 construct: expressed in transfected cells; host or cells: HEK293T stably expressing Gα16gust44
T1 sequence (Q8TE23 20-839): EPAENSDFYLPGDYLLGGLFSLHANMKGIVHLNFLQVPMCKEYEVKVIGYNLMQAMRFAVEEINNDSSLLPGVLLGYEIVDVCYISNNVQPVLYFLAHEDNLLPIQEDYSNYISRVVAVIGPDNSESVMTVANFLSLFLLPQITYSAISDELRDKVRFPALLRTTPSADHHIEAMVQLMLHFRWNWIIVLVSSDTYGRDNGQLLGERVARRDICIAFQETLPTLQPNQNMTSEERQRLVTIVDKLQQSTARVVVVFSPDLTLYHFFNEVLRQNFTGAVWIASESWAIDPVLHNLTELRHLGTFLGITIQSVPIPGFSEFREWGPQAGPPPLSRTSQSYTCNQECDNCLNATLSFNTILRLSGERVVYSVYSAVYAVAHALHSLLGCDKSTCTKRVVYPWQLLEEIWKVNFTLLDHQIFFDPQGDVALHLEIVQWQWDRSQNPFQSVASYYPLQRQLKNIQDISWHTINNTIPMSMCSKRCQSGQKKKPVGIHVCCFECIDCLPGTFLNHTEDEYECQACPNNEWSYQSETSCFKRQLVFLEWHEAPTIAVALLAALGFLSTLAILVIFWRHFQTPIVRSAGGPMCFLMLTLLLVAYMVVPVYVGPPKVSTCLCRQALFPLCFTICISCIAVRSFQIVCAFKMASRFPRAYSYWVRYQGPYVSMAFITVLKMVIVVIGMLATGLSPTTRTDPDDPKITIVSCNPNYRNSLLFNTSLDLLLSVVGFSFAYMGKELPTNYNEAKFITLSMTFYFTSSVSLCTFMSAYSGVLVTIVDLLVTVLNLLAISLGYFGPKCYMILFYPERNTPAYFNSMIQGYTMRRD
T1 sequence (Q7RTX0 21-852 S446N): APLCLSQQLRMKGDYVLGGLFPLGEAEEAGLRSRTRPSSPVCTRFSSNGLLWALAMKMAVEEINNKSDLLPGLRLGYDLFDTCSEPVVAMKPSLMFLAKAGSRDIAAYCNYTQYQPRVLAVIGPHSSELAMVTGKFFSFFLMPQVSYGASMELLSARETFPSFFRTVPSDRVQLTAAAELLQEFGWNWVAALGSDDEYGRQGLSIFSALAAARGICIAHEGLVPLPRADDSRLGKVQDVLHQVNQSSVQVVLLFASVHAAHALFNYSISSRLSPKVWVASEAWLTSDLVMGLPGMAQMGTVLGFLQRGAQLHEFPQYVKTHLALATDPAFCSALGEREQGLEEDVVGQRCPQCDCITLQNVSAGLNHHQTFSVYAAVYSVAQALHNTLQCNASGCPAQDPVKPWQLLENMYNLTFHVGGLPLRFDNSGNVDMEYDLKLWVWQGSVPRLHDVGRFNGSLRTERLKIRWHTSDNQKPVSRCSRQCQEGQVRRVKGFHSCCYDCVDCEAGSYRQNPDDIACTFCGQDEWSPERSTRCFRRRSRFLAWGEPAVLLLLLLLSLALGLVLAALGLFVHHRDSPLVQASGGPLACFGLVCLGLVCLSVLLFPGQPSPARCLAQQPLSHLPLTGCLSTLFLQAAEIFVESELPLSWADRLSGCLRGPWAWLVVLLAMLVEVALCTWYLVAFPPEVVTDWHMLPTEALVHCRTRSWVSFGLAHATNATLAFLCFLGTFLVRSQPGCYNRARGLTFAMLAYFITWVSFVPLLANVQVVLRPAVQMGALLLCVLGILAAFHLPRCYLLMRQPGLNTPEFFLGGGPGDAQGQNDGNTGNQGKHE
Test: Calcium mobilisation assay, TAS1R2-WT with TAS1R3 variant S446N
Type: cell-based
Conditions: for Max ΔF/F0: maximal signal amplitude
Description: The coding sequences for TAS1R2 and TAS1R3 were commercially synthesised, and the human codon was optimised for expression in human cells. The coding sequences of human TAS1R2 and TAS1R3 were subcloned and inserted into the mammalian expression vectors pcDNA6/myc-HisA and pcDNA4/myc-HisA (Invitrogen; Thermo Fisher Scientific; Illkirch, France) between the EcoRI and NotI restriction sites, generating the plasmids pcDNA6-TAS1R2 and pcDNA4-TAS1R3, respectively. To increase protein expression in mammalian cells, an upstream start codon was used, which was a sequence called MAX, corresponding to the QBI SP163 element also described in pcDNA4-HisMax (Invitrogen; Thermo Fisher Scientific; Illkirch, France). To measure the expression level of the receptor by immunohistochemistry, we used the FLAG sequence ([…]) in the C-terminal position, which encodes the FLAG tag epitope. SNP variants of TAS1R2 and TAS1R3 were constructed based on […], respectively, using site-directed mutagenesis (Genewiz; Leipzig, Germany).
The HEK293T cells were kindly provided by Jay P. Slack (Givaudan Flavors Corporation; Cincinnati, OH, USA). HEK293T cells stably transfected with Gα16gust44 [43, 67] were seeded in poly-D-lysine-coated clear-bottom black 96-well plates (0.35 × 10^5 cells/well) in high-glucose DMEM supplemented with 2 mM GlutaMAX, 10% dialysed foetal bovine serum with penicillin/streptomycin and G418 (400 μg/mL) at 37 °C and 6.3% CO2 in a humidified atmosphere as previously reported. […] As a negative control, HEK293T cells were mock-transfected with the empty expression vector. After a further 24 h of incubation, the HEK293T cells were washed with C1 buffer (130 mM NaCl, 5 mM KCl, 10 mM HEPES pH 7.4 and 2 mM CaCl2). The 96-well plates containing the cells were then stimulated with sweet-tasting compounds. […] Different concentration ranges were tested depending on the sweet compound injected. The Ca^2+ changes were expressed as fractional changes in fluorescent light intensity: ΔF/F = (F − F0)/F0, where F was the fluorescent light intensity at each point, and F0 was the value of emitted fluorescent light prior to stimulus application. To calculate dose–response relationships, the changes in fluorescence upon stimulus application were averaged, mock-subtracted and baseline-corrected. The dose–response data obtained were adjusted using a 4-parameter logistic equation. The half-maximal effective concentrations (EC50 values) and maximal signal amplitudes were calculated using SigmaPlot software (version 15.0) (Systat Software; San Jose, CA, USA).
For in vitro calcium mobilisation assay performed on hTAS1R2-SNPs, hTAS1R3-SNPs and mTAS1R3-I60T, 6 to 7 concentrations were tested for each sweet compound, plus buffer alone. All concentration–receptor combinations were measured in duplicate, and each experiment was repeated at least 4 times (8 wells/concentration). Results were expressed for each concentration as ΔF/F mean ± SEM and represented as dose–response curves.

Row | Molecule | R1 = Variant EC50/WT EC50 | Max ΔF/F0 | EC50 (read-out: EC50) | EC50 (brazzein)
1 | C=C(C)[C@@H]1CC=C(/C=N/O)CC1 [Perillartine, perillartine] | 1.1 | 1.42 ± 0.26 | 15.3 ± 8.6 µM | 
2 | O=S(=O)(O)NC1CCCCC1 [Cyclamate, cyclamate] |  |  | 1480 ± 45 µM | 
3 | C=C1C[C@@]23CC[C@H]4[C@@](C)(CCC[C@@]4(C)C(=O)O[C@@H]4O[C@H](CO)[C@@H](O)[C@H](O[C@@H]5O[C@H](CO)[C@@H](O)[C@H](O)[C@H]5O)[C@H]4O[C@@H]4O[C@H](CO)[C@@H](O)[C@H](O)[C@H]4O)[C@@H]2CC[C@]1(O[C@@H]1O[C@H](CO)[C@@H](O)[C@H](O[C@@H]2O[C@H](CO)[C@@H](O)[C@H](O)[C@H]2O)[C@H]1O[C@@H]1O[C@H](CO)[C@@H](O)[C@H](O)[C@H]1O)C3 [Rebaudioside M, rebaudioside M] | 0.9 | 0.64 ± 0.03 | 36.9 ± 3.6 µM | 
4 | OC[C@H]1O[C@H](O[C@]2(CCl)O[C@H](CCl)[C@@H](O)[C@@H]2O)[C@H](O)[C@@H](O)[C@H]1Cl [Sucralose] | 1.4 | 0.68 ± 0.02 | 155 ± 11 µM | 
5 | CC1=CC(=O)NS(=O)(=O)O1 [Acesulfame K, acesulfame K] | 0.8 | 0.19 ± 0.01 | 487 ± 78 µM | 
6 | brazzein (QDKCKKVYENYPVSKCQLANQCNYDCKLDKHARSGECFYDEKRNLQCICDYCEY; ends and bridges not checked; cysteine pairing not given here; UniProt P56552 1-54, looked up) [sweet-tasting protein obtained by recombinant production using the yeast Pichia pastoris] | 1.1 | 0.98 ± 0.03 |  | 120.8 ± 9.3 µg/mL
7 | thaumatin | 0.9 | 0.70 ± 0.04 |  | 
8 | COC(=O)[C@H](Cc1ccccc1)NC(=O)[C@H](CC(=O)O)NCCC(C)(C)C [Neotame] | 1.0 | 0.63 ± 0.02 | 1.22 ± 0.1 µM | 
9 | C[C@H](CC[C@@H](O[C@@H]1O[C@H](CO[C@@H]2O[C@H](CO)[C@@H](O)[C@H](O)[C@H]2O)[C@@H](O)[C@H](O)[C@H]1O[C@@H]1O[C@H](CO)[C@@H](O)[C@H](O)[C@H]1O)C(C)(C)O)[C@H]1CC[C@@]2(C)[C@@H]3CC=C4[C@@H](CC[C@H](O[C@@H]5O[C@H](CO[C@@H]6O[C@H](CO)[C@@H](O)[C@H](O)[C@H]6O)[C@@H](O)[C@H](O)[C@H]5O)C4(C)C)[C@]3(C)[C@H](O)C[C@]12C [Mogroside V, mogroside V] | 1.5 | 0.86 ± 0.01 | 47.7 ± 1.5 µM | 
10 | COc1ccc(CCC(=O)c2c(O)cc(O[C@@H]3O[C@H](CO)[C@@H](O)[C@H](O)[C@H]3O[C@@H]3O[C@@H](C)[C@H](O)[C@@H](O)[C@H]3O)cc2O)cc1O [NHDC, neohesperidin dihydrochalcone] | 1.0 | 1.07 ± 0.06 | 49.4 ± 8.6 µM | 
11 | B1 |  |  | 9.8 ± 1.1 µM | 
